Experimental data reported in PMC8113213, “Physiologically based kinetic modelling based prediction of in vivo rat and human acetylcholinesterase (AChE) inhibition upon exposure to diazinon” (Archives of Toxicology, 2021).

Experiments:
[1] = assay type: in vitro ADME; settings: intestinal microsomes, data not shown
Protocol: The physiological parameters for rat and human were obtained from Brown et al. ([1997]) as well as Gearhart et al. ([1990]), and are summarised in Table 1. […] The kinetic parameters for biotransformation of DZN in rat and human were obtained by conducting in vitro liver microsomal/plasma incubations as described in the section “In vitro metabolic incubations for deriving kinetic parameters”. […] The first-pass metabolism of DZN by the intestine was not taken into account in the current model because the metabolic conversion in the intestine derived from the conversion in incubations with intestinal microsomes upon scaling to the whole organ, appeared less than 5% of that obtained in a similar way for the liver (data not shown). […] To scale the in vitro Vmax values to the in vivo situation, the following scaling factors were used; 35 mg microsomal protein/g liver for rat hepatic metabolism (Medinsky et al. [1994]), 32 mg microsomal protein/g liver for human hepatic metabolism (Barter et al. [2007]), 77 mg plasma protein/ml plasma (total plasma protein concentration) for human plasma metabolism, and 60 mg plasma protein/ml plasma (total plasma protein concentration) for rat plasma metabolism. Plasma volume in rat and human were assumed as 55% of their corresponding blood volume (O'Neil [1999]). The Km values determined in vitro were assumed to be equal to in vivo Km values. […]

RBC AChE = test: TEF-coded PBK model-based reverse dosimetry, predicted in vivo RBC AChE inhibition, human
Excerpt: The PBK model for DZN was developed based on the model from Poet et al. ([2004]) with some modifications for both rat and human. The model contains a submodel for the metabolite DZO and was defined to include compartments for rapidly perfused tissue, slowly perfused tissue, liver, fat and blood for both the parent compound DZN and its metabolite DZO. The model also contains a compartment to describe the urinary elimination of the metabolites IMHP and DAP (sum of DEP and DETP). In the currently developed model, oral exposure was included since we aimed at defining a POD for risk assessment of exposure via food and drinking water, and intravenous (IV) exposure was included for model evaluation. The fractional absorption (fa) was set equal to literature reported values, being 0.8 in rat (Poet et al. [2004]) and 0.66 in human (Garfitt et al. [2002]) and applied to the overall dose. […]
The physiological parameters for rat and human were obtained from Brown et al. ([1997]) as well as Gearhart et al. ([1990]), and are summarised in Table 1. […] The Km values determined in vitro were assumed to be equal to in vivo Km values. […]

[2] = target: T1, recombinant human AChE (rhAChE) (Homo sapiens, UniProt P22303); test: biochemical
T1 construct: purchased Sigma-Aldrich Co
Protocol: However, since recombinant rat AChE was not commercially available, extracted rat RBC AChE was used. […] The concentration of DTNB was calculated based on the concentration ratio (ATC/DTNB) of 2 (Stern et al. [2014]). […] To initiate the inhibition reaction, 1 µl rhAChE or rat AChE (final concentration 0.6 mU/ml) was added to the incubation. The total incubation volume was 50 µl. After 15 min incubation at 37℃, 150 µl reaction reagents (mixture of ATC at a final concentration of 150 µM and DTNB at a final concentration of 75 µM) were added into each well. The final total volume of each well was 200 µl. Subsequently, the 96-well plate was measured continuously for 10 min at absorbance 412 nm at 37℃ to quantify the remaining AChE activity.
The rhAChE and rat AChE activity were expressed as the remaining AChE activity relative to solvent control (100% activity) and positive control (0% activity) based on Eq. (2):2 AChEactivity\%=A412t10-t0testcompound-A412t10-t0positivecontrol/A412t10-t0solventcontrol-A412t10-t0positivecontrol×100\% , where the A412(t10 − t0)test compound is the change in the absorbance at A412 nm between 0 and 10 min for the test compound, the A412(t10 − t0)positive control is the change in the absorbance at A412 nm between 0 and 10 min for the CPO sample, and the A412(t10 − t0)solvent control is the change in the absorbance at A412nm between 0 and 10 min for the 0.2% ethanol sample.

CYP450 = settings: ref Kappers et al. 2001; cited from earlier work
natural human RBC AChE = settings: ref Fakhri-Bafghi et al. 2016; cited from earlier work

T1 sequence (P22303 32-614): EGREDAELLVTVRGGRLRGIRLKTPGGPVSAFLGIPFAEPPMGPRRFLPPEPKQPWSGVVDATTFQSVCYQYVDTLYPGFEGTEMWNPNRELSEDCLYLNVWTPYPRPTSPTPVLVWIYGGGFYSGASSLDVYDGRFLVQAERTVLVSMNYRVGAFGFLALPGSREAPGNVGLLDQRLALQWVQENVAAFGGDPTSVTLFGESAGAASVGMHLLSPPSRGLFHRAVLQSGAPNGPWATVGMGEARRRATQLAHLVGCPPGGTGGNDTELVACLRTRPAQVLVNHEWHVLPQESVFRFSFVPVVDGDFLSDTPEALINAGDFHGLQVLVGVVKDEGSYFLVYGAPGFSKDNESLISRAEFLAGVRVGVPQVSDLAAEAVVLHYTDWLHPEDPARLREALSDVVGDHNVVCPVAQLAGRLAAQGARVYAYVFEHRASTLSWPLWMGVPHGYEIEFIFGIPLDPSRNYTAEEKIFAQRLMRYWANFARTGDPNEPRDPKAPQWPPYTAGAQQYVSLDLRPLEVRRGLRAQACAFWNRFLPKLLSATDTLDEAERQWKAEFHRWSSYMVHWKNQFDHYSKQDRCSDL

With `CCOP(=S)(OCC)Oc1cc(C)nc(C(C)C)n1` [DZN, O,O-diethyl O-2-isopropyl-6-methylpyrimidin-4-yl phosphorothioate] the “metabolic conversion in the intestine scaled to the whole organ, relative to that for the liver” value [1] was “less than 5%”, the “predicted BMDL10 for human lower than that for rat” value (RBC AChE) was 6 fold and the “lower AChE inhibitory potency of DZN than of DZO” value [2] was “around 300 fold”. For the same molecule, the IC50 ([2]; rhAChE, 15 min incubation at 37℃, read-out: IC50 for inhibition of AChE activity) was 14.3 µM, the “difference in DZO formation from DZN between 15 human liver samples” value (CYP450) was 6- to 59 fold and the IC50 (natural human RBC AChE) was 24.4 µM.
